Data reported in US20210230131A1, “POLYAMINO BIARYL COMPOUNDS AND THEIR USE” (INSERM (INSTITUT NATIONAL DE LA SANTÉ ET DE LA RECHERCHE …, priority 2018, published 2021).

Assays:
[1] = Stability of aqueous drinking solutions; type: physicochemical
Description: Thy-Tau22 transgenic colonies (C57Bl/6J genetic background) were obtained by crossing heterozygous males C57Bl/6J with WT females. All animals were housed in a pathogen-free facility at 5 to 6 animals per cage (Techniplast Cages 1284L), with ad libitum access to food and water in a 12/12-hour light-dark cycle and maintained under a constant temperature of 22° C. For treatment, animals were randomly distributed and compound 30 or 31 was provided in the drinking water at a final concentration of 1 mg/kg, ie […] for drinking solutions taking into account an average weight of 25 g/mouse drinking 4 mL/day. […] Food consumption and bodyweight were also assessed. In WT animals, a pilot study of drug treatment was performed for one month to establish the innocuousness of compound 30 and 31 treatments. Thy-Tau22 females were treated for 1 months, starting at 6 months of age.

[2] = system: CTFα; test: APP carboxy-terminal fragment αCTF by Western blot in SY5Y-APP695WT cells; type: cell-based, human; conditions: CTFα increase compared to chloroquine ([CTF]compound/[CTF]CQ) at 3 μM; mean of at least three experiments
From the text: (§1) Antibodies. Primary antibodies used in this study for western-blot analysis included a homemade rabbit antiserum against the last 17 amino acids of human APP protein sequence, named APP-Cter-C17 (1/5000 in TBS-M). Anti-β-actin (1/10 000 in TBS-M) was obtained from Sigma. Anti-LC3B (1/2000 in TBS-BSA) and anti-p62/SQSTM1 (1/2000 in TBS-M) antibodies were purchased from Cell Signaling Technology. Secondary antibodies (peroxidase-labeled goat anti-rabbit IgG, 1/5000 or peroxidase-labeled horse anti-mouse IgG, 1/50000 in TBS-T) were obtained from Vector Laboratories.
(§2) Cell culture and treatment. The human neuroblastoma cell line SY5Y-APP^695WT was maintained in Dulbecco's modified Eagle medium (DMEM, high glucose, pyruvate—GIBCO by Life Technologies) supplemented with 10% foetal bovine serum, 2 mM L-glutamine, 1 mM non-essential amino acids and penicillin/streptomycin (GIBCO by Life Technologies) at 37° C. in a 5% CO2 humidified incubator. SY5Y-APP^695WT cells were maintained in 75 cm^2 culture flasks (Falcon) with supplemented DMEM medium until they reached 80% of confluence 24 h before treatment.
(§3) For drug treatment, cells were plated at a rate of 5·10^5 cells per well into 12-well plates (Falcon) and cultured with 1 mL supplemented DMEM cell medium for 24 h before drug exposure. The following day, cell medium was replaced with fresh medium containing drugs diluted at the indicated concentrations. Cells were treated for 24 h. At the end of treatments, the cell medium was collected and kept at −80° C. until use for dosage. Then, cells were rinsed once with PBS and extracted in 100 μL of Laemmli buffer (10 mM Tris, 20% glycerol and 2% Sodium dodecyl sulfate) using a cell-scraper. The cell lysate was further sonicated (30 pulses of 0.5 s, 60 Hz) for 5 min. Total protein concentration was determined using the Pierce BCA Protein Assay Kit (Thermo scientific) according to the manufacturer's instructions. Samples were stored at −80° C. until analysis.
(§4) Western Blot Analysis. Cell protein lysates were prepared for western-blot analysis by diluting the sample with 1 volume of NuPAGE® lithium dodecyl sulfate (LDS) 2× sample buffer supplemented with 20% NuPAGE® sample reducing agents (Invitrogen). Samples were heat 10 min at 100° C. 10 μg of total proteins per well were loaded onto a precast 4-12% Criterion XT Bis-Tris polyacrylamide gel (Bio-Rad) and electrophoresis was achieved after applying a tension of 150 V during 90 min using a Criterion electrophoresis Cell with the NuPAGE® MOPS SDS running buffer (1×). Proteins were transferred to a nitrocellulose membrane of […] pore size (G&E Healthcare) using the Criterion blotting system and applying a tension of 100 V for 45 min. To resolve proteins of low molecular weights such as carboxy-terminal fragments of APP, 12% Criterion XT Bis-Tris polyacrylamide gels (Bio-Rad) were used and electrophoresis was performed during 70 min at 150 V in a NuPAGE® MES SDS running buffer (1×). Proteins were transferred to a nitrocellulose membrane of 0.2 μm pore size (G&E Healthcare) at 100 V for 40 min. Molecular weights calibration was achieved using molecular weight markers (Novex and Magic Marks, Life Technologies). Protein transfer and quality were determined by a reversible Ponceau Red coloration (0.2% Xylidine Ponceau Red and 3% Trichloroacetic acid). Membranes were then blocked in 25 mM Tris-HCl pH 8.0, 150 mM NaCl, 0.1% Tween-20 (v/v) (TBS-T) and 5% (w/v) of skimmed milk (TBS-M) or 5% (w/v) of bovine serum albumin (TBS-BSA) depending on the antibody during 1 h. Membrane was rinsed three-times 10 min in TBS-T before incubation with the primary antibody overnight at 4° C. Membrane was rinsed 3 times 10 min with TBS-T and then incubated with the secondary antibody for 45 min at room temperature (RT). […] Quantifications of protein expression levels were performed with ImageJ Software (NIH). […]

[3] = system: AICD; test: AICD by Western blot in SY5Y-APP695WT cells; type: cell-based, human; conditions: AICD increase compared to chloroquine ([AICD]compound/[AICD]CQ) at 3 μM; mean of at least three experiments
From the text: as §1, §2, §3, §4

| SMILES | stability of aqueous solutions [1] | CTFα vs CQ (3 μM) [2] | AICD vs CQ (3 μM) [3] |
| --- | --- | --- | --- |
| CN(C)Cc1ccccc1-c1ccc(NCCCN2CCCCC2)c(OCCN2CCCCC2)c1 [Compound 30, 4-(2-[(Dimethylamino)methyl]phenyl)-2-[2-(piperidin-1-yl)ethoxy]-N-[3-(piperidin-1-yl)propyl]aniline] | stable during more than one week | 6.4 | 3.6 |
| CN(C)Cc1ccccc1-c1ccc(NCCCN2CCCCC2)c(OCCC2CCCCC2)c1 [Compound 31, 3-(2-cyclohexylethoxy)-2′-((dimethylamino)methyl)-N-(3-(piperidin-1-yl)propyl)-[1,1′-biphenyl]-4-amine] | stable during more than one week | 0.1 | 0.1 |
